Converted amounts (≈) assume the structure as drawn.
What follows are molecules tested on Nematode eggs (assay: Plant pathogenic nematode inhibition test by dipping: nematode egg hatch inhibition (NY/T 1154.5-2006)). Conditions: in vivo.
Type: in vivo
Method: A plant pathogenic nematode inhibition test is conducted by dipping with the compounds in Table 1; and by referring to NY/T 1154.5-2006 (Part 5: Dipping Test for Insecticide Ovicidal Activity), the nematode egg hatch inhibition activity of the compounds is tested, as shown in Table 2: […]
O=C1CC(C(=O)OCCC(F)=C(F)F)C(c2c(F)cccc2C(F)(F)F)O1 (stereo not shown) [Compound 31] was tested, and the LC50 was 9.60 µg/mL (≈ 24 µM).
COc1cccc(C2OC(=O)CC2C(=O)OCCC=C(F)F)c1 (stereo not shown) [Compound 36] gave an LC50 of 11.24 µg/mL (≈ 34.4 µM).
O=C1CC(C(=O)OCCC(F)=C(F)F)C(c2cc(C(F)(F)F)cc(C(F)(F)F)c2)O1 (stereo not shown) [Compound 48] showed an LC50 of 12.25 µg/mL (≈ 27.2 µM).
Molecule O=C1CC(C(=O)OCCC=C(F)F)C(c2ccccc2)O1 (stereo not shown) [Compound 1] has an LC50 of 11.81 µg/mL (≈ 39.9 µM).
O=C1CC(C(=O)OCCC(F)=C(F)F)C(c2ccc(Cl)cc2)O1 (stereo not shown) [Compound 15] showed an LC50 of 11.88 µg/mL (≈ 34.1 µM).
O=C1CC(C(=O)OCCC(F)=C(F)F)C(c2cc(F)cc(Br)c2)O1 (stereo not shown) [Compound 22] gave an LC50 of 9.57 µg/mL (≈ 23.3 µM).
With O=C1CC(C(=O)OCCC=C(F)F)C(c2ccccc2OC(F)(F)F)O1 (stereo not shown) [Compound 40] the LC50 was 10.04 µg/mL (≈ 26.4 µM).
Molecule CCOc1ccccc1C1OC(=O)CC1C(=O)OCCC(F)=C(F)F (stereo not shown) [Compound 43] has an LC50 of 11.98 µg/mL (≈ 33.4 µM).
COc1cccc(C2OC(=O)CC2C(=O)OCCC(F)=C(F)F)c1 (stereo not shown) [Compound 37] showed an LC50 of 12.84 µg/mL (≈ 37.3 µM).
O=C1CC(C(=O)OCCC(F)=C(F)F)C(c2ccc(Oc3ccc(Cl)cc3)cc2)O1 (stereo not shown) [Compound 54] gave an LC50 of 12.40 µg/mL (≈ 28.1 µM).
For O=C1CC(C(=O)OCCC(F)=C(F)F)C(c2ccccc2F)O1 (stereo not shown) [Compound 19], the LC50 was 15.21 µg/mL (≈ 45.8 µM).
Molecule O=C1CC(C(=O)OCCC(F)=C(F)F)C(c2cc(Br)cc(Br)c2)O1 (stereo not shown) [Compound 18] has an LC50 of 10.23 µg/mL (≈ 21.7 µM).
With O=C1CC(C(=O)OCCC(F)=C(F)F)C(c2cccc([N+](=O)[O-])c2)O1 (stereo not shown) [Compound 57] the LC50 was 12.12 µg/mL (≈ 33.7 µM).

Each molecule was assayed on Nematode J2 (assay: Plant pathogenic nematode inhibition test by dipping: second-stage juveniles). Conditions: in vivo.
Type: in vivo
O=C1CC(C(=O)OCCC(F)=C(F)F)C(c2c(F)cccc2C(F)(F)F)O1 (stereo not shown) [Compound 31] was tested, and the LC50 was 10.07 µg/mL (≈ 25.2 µM).
In the case of COc1cccc(C2OC(=O)CC2C(=O)OCCC=C(F)F)c1 (stereo not shown) [Compound 36], the LC50 is reported as 12.64 µg/mL (≈ 38.7 µM).
In the case of O=C1CC(C(=O)OCCC(F)=C(F)F)C(c2cc(C(F)(F)F)cc(C(F)(F)F)c2)O1 (stereo not shown) [Compound 48], the LC50 is reported as 13.27 µg/mL (≈ 29.5 µM).
With O=C1CC(C(=O)OCCC=C(F)F)C(c2ccccc2)O1 (stereo not shown) [Compound 1] the LC50 was 12.24 µg/mL (≈ 41.3 µM).
In the case of O=C1CC(C(=O)OCCC(F)=C(F)F)C(c2ccc(Cl)cc2)O1 (stereo not shown) [Compound 15], the LC50 is reported as 12.69 µg/mL (≈ 36.4 µM).
O=C1CC(C(=O)OCCC(F)=C(F)F)C(c2cc(F)cc(Br)c2)O1 (stereo not shown) [Compound 22] gave an LC50 of 10.85 µg/mL (≈ 26.4 µM).
Work on O=C1CC(C(=O)OCCC=C(F)F)C(c2ccccc2OC(F)(F)F)O1 (stereo not shown) [Compound 40] yielded an LC50 of 13.40 µg/mL (≈ 35.2 µM).
In the case of CCOc1ccccc1C1OC(=O)CC1C(=O)OCCC(F)=C(F)F (stereo not shown) [Compound 43], the LC50 is reported as 13.35 µg/mL (≈ 37.3 µM).
Molecule COc1cccc(C2OC(=O)CC2C(=O)OCCC(F)=C(F)F)c1 (stereo not shown) [Compound 37] has an LC50 of 13.67 µg/mL (≈ 39.7 µM).
O=C1CC(C(=O)OCCC(F)=C(F)F)C(c2ccc(Oc3ccc(Cl)cc3)cc2)O1 (stereo not shown) [Compound 54] gave an LC50 of 14.16 µg/mL (≈ 32.1 µM).
Work on O=C1CC(C(=O)OCCC(F)=C(F)F)C(c2ccccc2F)O1 (stereo not shown) [Compound 19] yielded an LC50 of 17.24 µg/mL (≈ 51.9 µM).
O=C1CC(C(=O)OCCC(F)=C(F)F)C(c2cc(Br)cc(Br)c2)O1 (stereo not shown) [Compound 18] showed an LC50 of 12.47 µg/mL (≈ 26.4 µM).
Work on O=C1CC(C(=O)OCCC(F)=C(F)F)C(c2cccc([N+](=O)[O-])c2)O1 (stereo not shown) [Compound 57] yielded an LC50 of 14.23 µg/mL (≈ 39.6 µM).

Each molecule was assayed on Earthworm (assay: Earthworm toxicity test (Test Guidelines on Environmental Safety Assessment for Chemical Pesticides)). Conditions: cell adds 'low toxicity'.
Type: in vivo
Method: (§1) According to the earthworm and edaphon toxicity test procedures as prescribed in the Test Guidelines on Environmental Safety Assessment for Chemical Pesticides, earthworm and edaphon toxicity tests are conducted on compounds 1 to 60 from Table 1. The simulative usual dose of pesticide in the edaphon test is 40 ppm.
In the case of O=C1CC(C(=O)OCCC(F)=C(F)F)C(c2c(F)cccc2C(F)(F)F)O1 (stereo not shown) [Compound 31], the “Earthworm Toxicity LC50 (14 d)” value is reported as >10, low toxicity mg/L.
COc1cccc(C2OC(=O)CC2C(=O)OCCC=C(F)F)c1 (stereo not shown) [Compound 36] was tested, and the “Earthworm Toxicity LC50 (14 d)” value was >10, low toxicity mg/L.
O=C1CC(C(=O)OCCC(F)=C(F)F)C(c2cc(C(F)(F)F)cc(C(F)(F)F)c2)O1 (stereo not shown) [Compound 48] was tested, and the “Earthworm Toxicity LC50 (14 d)” value was >10, low toxicity mg/L.
In the case of O=C1CC(C(=O)OCCC=C(F)F)C(c2ccccc2)O1 (stereo not shown) [Compound 1], the “Earthworm Toxicity LC50 (14 d)” value is reported as >10, low toxicity mg/L.
With O=C1CC(C(=O)OCCC(F)=C(F)F)C(c2ccc(Cl)cc2)O1 (stereo not shown) [Compound 15] the “Earthworm Toxicity LC50 (14 d)” value was >10, low toxicity mg/L.
In the case of O=C1CC(C(=O)OCCC(F)=C(F)F)C(c2cc(F)cc(Br)c2)O1 (stereo not shown) [Compound 22], the “Earthworm Toxicity LC50 (14 d)” value is reported as >10, low toxicity mg/L.
O=C1CC(C(=O)OCCC=C(F)F)C(c2ccccc2OC(F)(F)F)O1 (stereo not shown) [Compound 40] was tested, and the “Earthworm Toxicity LC50 (14 d)” value was >10, low toxicity mg/L.
In the case of CCOc1ccccc1C1OC(=O)CC1C(=O)OCCC(F)=C(F)F (stereo not shown) [Compound 43], the “Earthworm Toxicity LC50 (14 d)” value is reported as >10, low toxicity mg/L.
In the case of COc1cccc(C2OC(=O)CC2C(=O)OCCC(F)=C(F)F)c1 (stereo not shown) [Compound 37], the “Earthworm Toxicity LC50 (14 d)” value is reported as >10, low toxicity mg/L.
O=C1CC(C(=O)OCCC(F)=C(F)F)C(c2ccc(Oc3ccc(Cl)cc3)cc2)O1 (stereo not shown) [Compound 54] was tested, and the “Earthworm Toxicity LC50 (14 d)” value was >10, low toxicity mg/L.
For O=C1CC(C(=O)OCCC(F)=C(F)F)C(c2ccccc2F)O1 (stereo not shown) [Compound 19], the “Earthworm Toxicity LC50 (14 d)” value was >10, low toxicity mg/L.
In the case of O=C1CC(C(=O)OCCC(F)=C(F)F)C(c2cc(Br)cc(Br)c2)O1 (stereo not shown) [Compound 18], the “Earthworm Toxicity LC50 (14 d)” value is reported as >10, low toxicity mg/L.
For O=C1CC(C(=O)OCCC(F)=C(F)F)C(c2cccc([N+](=O)[O-])c2)O1 (stereo not shown) [Compound 57], the “Earthworm Toxicity LC50 (14 d)” value was >10, low toxicity mg/L.

What follows are molecules tested on Edaphon (assay: Edaphon toxicity test (Test Guidelines on Environmental Safety Assessment for Chemical Pesticides)). Conditions: 15 d; 100 times of usual dose (simulative usual dose 40 ppm); cell adds 'low toxicity'.
Method: as §1
In the case of O=C1CC(C(=O)OCCC(F)=C(F)F)C(c2c(F)cccc2C(F)(F)F)O1 (stereo not shown) [Compound 31], the “Edaphon Toxicity (15 d) (Inhibition ratio when added amount is 100 times of usual dose)” value is reported as <50%, low toxicity.
COc1cccc(C2OC(=O)CC2C(=O)OCCC=C(F)F)c1 (stereo not shown) [Compound 36] was tested, and the “Edaphon Toxicity (15 d) (Inhibition ratio when added amount is 100 times of usual dose)” value was <50%, low toxicity.
With O=C1CC(C(=O)OCCC(F)=C(F)F)C(c2cc(C(F)(F)F)cc(C(F)(F)F)c2)O1 (stereo not shown) [Compound 48] the “Edaphon Toxicity (15 d) (Inhibition ratio when added amount is 100 times of usual dose)” value was <50%, low toxicity.
With O=C1CC(C(=O)OCCC=C(F)F)C(c2ccccc2)O1 (stereo not shown) [Compound 1] the “Edaphon Toxicity (15 d) (Inhibition ratio when added amount is 100 times of usual dose)” value was <50%, low toxicity.
In the case of O=C1CC(C(=O)OCCC(F)=C(F)F)C(c2ccc(Cl)cc2)O1 (stereo not shown) [Compound 15], the “Edaphon Toxicity (15 d) (Inhibition ratio when added amount is 100 times of usual dose)” value is reported as <50%, low toxicity.
For O=C1CC(C(=O)OCCC(F)=C(F)F)C(c2cc(F)cc(Br)c2)O1 (stereo not shown) [Compound 22], the “Edaphon Toxicity (15 d) (Inhibition ratio when added amount is 100 times of usual dose)” value was <50%, low toxicity.
With O=C1CC(C(=O)OCCC=C(F)F)C(c2ccccc2OC(F)(F)F)O1 (stereo not shown) [Compound 40] the “Edaphon Toxicity (15 d) (Inhibition ratio when added amount is 100 times of usual dose)” value was <50%, low toxicity.
In the case of CCOc1ccccc1C1OC(=O)CC1C(=O)OCCC(F)=C(F)F (stereo not shown) [Compound 43], the “Edaphon Toxicity (15 d) (Inhibition ratio when added amount is 100 times of usual dose)” value is reported as <50%, low toxicity.
In the case of COc1cccc(C2OC(=O)CC2C(=O)OCCC(F)=C(F)F)c1 (stereo not shown) [Compound 37], the “Edaphon Toxicity (15 d) (Inhibition ratio when added amount is 100 times of usual dose)” value is reported as <50%, low toxicity.
O=C1CC(C(=O)OCCC(F)=C(F)F)C(c2ccc(Oc3ccc(Cl)cc3)cc2)O1 (stereo not shown) [Compound 54] was tested, and the “Edaphon Toxicity (15 d) (Inhibition ratio when added amount is 100 times of usual dose)” value was <50%, low toxicity.
With O=C1CC(C(=O)OCCC(F)=C(F)F)C(c2ccccc2F)O1 (stereo not shown) [Compound 19] the “Edaphon Toxicity (15 d) (Inhibition ratio when added amount is 100 times of usual dose)” value was <50%, low toxicity.
O=C1CC(C(=O)OCCC(F)=C(F)F)C(c2cc(Br)cc(Br)c2)O1 (stereo not shown) [Compound 18] was tested, and the “Edaphon Toxicity (15 d) (Inhibition ratio when added amount is 100 times of usual dose)” value was <50%, low toxicity.
For O=C1CC(C(=O)OCCC(F)=C(F)F)C(c2cccc([N+](=O)[O-])c2)O1 (stereo not shown) [Compound 57], the “Edaphon Toxicity (15 d) (Inhibition ratio when added amount is 100 times of usual dose)” value was <50%, low toxicity.
